Consider 29 compounds from patent publication US8796268B2, “Heteroaryls and uses thereof” (Millennium Pharmaceuticals, Inc., priority 2010, dated 2014).

Structures are written as SMILES. Like-named read-outs stand apart in the source and are kept apart here.

Assay [1] deals with T1, Human PI3K beta (Homo sapiens, UniProt P42338).
T1 construct: His (N); host or cells: SF9 insect cells (baculovirus)
As to the kind of experiment: Human PI3K beta enzyme assay (HTRF). The class given is biochemical. The conditions noted are these: for IC50: read-out: PI3 Kbeta IC50. The source says:
(§1) The catalytic subunits of PI3Ks are cloned into either pDEST8(p110 alpha) or pDEST10(p110beta, p110delta, and p110gamma) as N-terminal His tagged fusion proteins using the Gateway system (Invitrogen, catalog#11804-010 for pDEST8 and 11806-015 for pDEST10). The sequences are verified before recombinant protein expression using the Baculovirus Expression System with Gateway® Technology. The accession numbers for the subunits are as follows: • p110 alpha (GB:U79143) • p110beta (GB: S67334) • p110delta (GB: U86453) • p110gamma (GB: X83368) • The regulatory subunits of PI3Ks are cloned into pDEST8 as un-tagged protein using the Gateway system (Catalog#11804-010). The sequences are verified before recombinant protein expression using the Baculovirus Expression System with Gateway® Technology. The accession numbers for the subunits are as following: • p85 alpha (GB: BC030815) • p101(GB: AB028925) • VPS34 (accession number GB:BC033004) is cloned into pDEST20—Thombin as N-terminal GST tagged fusion proteins using the Gateway system (Invitrogen, catalog#11804-013). The sequences are verified before recombinant protein expression using the Baculovirus Expression System with Gateway® Technology.
(§2) For expression of the p110 complexes, the p85 (MOI of 4) is co-infected with p110 alpha, beta, and delta respectively (1MOI) in SF9 cells and harvested at 60 hours post co-infection. P110 gamma was infected at 1 MOI and harvested at 60 hours post infection.
(§3) For purification, PI3Ks are purified by Ni-NTA Agarose (Qiagen #30250) followed by Mono Q 10/100 GL (Ge Healthcare #17-5167-01). VPS34 is purified by Glutathione Sepharose 4 Fast Flow (GE Healthcare #17-5132-03) followed by HiTrap Q (GE Healthcare #17-1153-01).
(§4) 0.5 uL compounds in DMSO are added to wells of a 384 well microtitre plate (Corning 3575). At room temperature: 10 ul PI3K reaction buffer (50 mM Hepes, 5 mM DTT, 150 mM NaCl, 10 mM beta-glycerophosphate, 10 mM MgCl2, 0.25 mM sodium cholate and 0.001% CHAPS, pH 7.00) containing ATP (25 uM, Promega) is added followed immediately by 10 ul PI3K reaction buffer containing di-C8 P1(4,5)P2 (3.5 uM, CellSignals) and PI3Kalpha (0.4875 nM, Millennium Protein Sciences Group) and the mixture is incubated with shaking at room temperature for 30 minutes. Then 5 ul PI3K stop mix (50 mM Hepes, 5 mM DTT, 150 mM NaCl, 0.01% Tween-20, 15 mM EDTA and 25 nM biotin-PI(3,4,5)P3 (Echelon) is added to quench the reaction followed immediately by addition of 5 ul HTRF detection mix (50 mM Hepes, 5 mM DTT, 150 mM NaCl, 0.01% Tween-20, 40 mM KF, 1.0 nM GST:GRP-1 PH domain (Millennium Protein Sciences Group), 15 nM Streptavidin-XL (CisBio) and 0.375 nM anti-GST Eu++ antibody (CisBio) at pH 7.00). The plates are then incubated for 1 hour at room temperature with shaking and then read on a BMG PheraStar Plus reader.
2) Human PI3K beta, delta and gamma isoforms are tested using the procedure described for PI3K alpha above but with the following changes: PI3K beta (5.25 nM), PI3K delta (0.75 nM) and PI3K gamma (5 nM). All isoforms supplied by Millennium Protein Science Group.
(§5) For the assay methods described above, test compound percent inhibition, at various concentrations, is calculated relative to control (DMSO and EDTA) treated samples. Compound concentration versus percent inhibition curves are fitted to generate IC50 values. One skilled in the art will appreciate that the values generated either as percentage inhibition at a single concentration or IC50 values are subject to experimental variation.
Background: TR-FRET usually uses a lanthanide donor and a delayed reading to cut background.

In assay [2] the target is T2, Human PI3K alpha (Homo sapiens, UniProt P42336).
T2 construct: His (N); host or cells: SF9 insect cells (baculovirus)
T2 sequence (P42336 whole entry): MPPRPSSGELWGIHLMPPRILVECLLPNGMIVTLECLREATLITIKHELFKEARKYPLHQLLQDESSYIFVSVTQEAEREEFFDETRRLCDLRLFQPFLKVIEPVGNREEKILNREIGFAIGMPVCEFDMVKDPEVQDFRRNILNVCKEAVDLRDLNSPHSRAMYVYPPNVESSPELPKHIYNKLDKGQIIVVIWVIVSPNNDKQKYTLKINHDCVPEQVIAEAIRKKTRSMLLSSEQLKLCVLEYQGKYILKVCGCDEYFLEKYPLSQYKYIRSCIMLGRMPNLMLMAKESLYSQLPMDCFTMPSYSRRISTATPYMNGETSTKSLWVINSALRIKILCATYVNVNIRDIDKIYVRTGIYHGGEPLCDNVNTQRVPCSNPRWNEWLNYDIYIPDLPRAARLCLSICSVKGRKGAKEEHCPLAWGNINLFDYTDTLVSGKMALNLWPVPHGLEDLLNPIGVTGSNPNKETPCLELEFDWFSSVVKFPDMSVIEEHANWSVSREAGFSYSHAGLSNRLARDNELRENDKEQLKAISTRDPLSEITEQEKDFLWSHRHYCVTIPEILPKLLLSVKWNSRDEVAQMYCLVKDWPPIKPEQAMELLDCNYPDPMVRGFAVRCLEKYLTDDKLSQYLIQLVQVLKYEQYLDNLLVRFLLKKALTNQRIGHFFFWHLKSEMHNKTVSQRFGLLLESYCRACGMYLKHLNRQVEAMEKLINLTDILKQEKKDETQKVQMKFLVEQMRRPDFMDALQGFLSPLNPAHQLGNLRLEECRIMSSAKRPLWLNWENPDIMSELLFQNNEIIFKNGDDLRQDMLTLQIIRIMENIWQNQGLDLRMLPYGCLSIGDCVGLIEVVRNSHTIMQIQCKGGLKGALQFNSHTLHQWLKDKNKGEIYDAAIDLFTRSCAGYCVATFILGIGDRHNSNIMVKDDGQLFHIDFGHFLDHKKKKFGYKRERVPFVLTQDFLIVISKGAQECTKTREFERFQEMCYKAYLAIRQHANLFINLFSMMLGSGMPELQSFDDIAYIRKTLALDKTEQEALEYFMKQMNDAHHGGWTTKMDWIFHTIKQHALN
T2 sequence (P27986 whole entry partner): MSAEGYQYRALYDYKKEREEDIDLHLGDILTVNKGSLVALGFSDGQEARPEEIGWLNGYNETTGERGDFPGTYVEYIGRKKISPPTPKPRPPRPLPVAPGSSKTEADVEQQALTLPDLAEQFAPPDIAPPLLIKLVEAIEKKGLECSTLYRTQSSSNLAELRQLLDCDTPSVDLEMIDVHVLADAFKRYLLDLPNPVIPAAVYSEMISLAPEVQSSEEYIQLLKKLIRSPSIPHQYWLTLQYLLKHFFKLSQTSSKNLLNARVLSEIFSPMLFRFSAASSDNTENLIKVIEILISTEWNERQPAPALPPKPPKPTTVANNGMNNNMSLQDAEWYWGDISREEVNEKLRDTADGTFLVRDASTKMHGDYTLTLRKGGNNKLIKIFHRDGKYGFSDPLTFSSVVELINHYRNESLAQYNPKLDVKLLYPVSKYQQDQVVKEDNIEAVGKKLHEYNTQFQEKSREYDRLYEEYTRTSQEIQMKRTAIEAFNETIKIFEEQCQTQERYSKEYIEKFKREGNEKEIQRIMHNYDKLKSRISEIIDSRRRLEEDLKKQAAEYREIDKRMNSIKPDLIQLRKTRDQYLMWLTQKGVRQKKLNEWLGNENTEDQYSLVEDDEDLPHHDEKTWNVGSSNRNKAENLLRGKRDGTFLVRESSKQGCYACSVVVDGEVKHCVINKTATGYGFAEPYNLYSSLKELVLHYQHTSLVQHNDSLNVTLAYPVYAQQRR
As to the kind of experiment: Human PI3K alpha enzyme assay (HTRF). It is filed as biochemical. The conditions noted are these: for IC50: read-out: PI3Kalpha IC50.
From the text: as §1, §2, §3
1) Human PI3K alpha enzyme assay method
as §4, §5

T1 sequence (P42338 whole entry): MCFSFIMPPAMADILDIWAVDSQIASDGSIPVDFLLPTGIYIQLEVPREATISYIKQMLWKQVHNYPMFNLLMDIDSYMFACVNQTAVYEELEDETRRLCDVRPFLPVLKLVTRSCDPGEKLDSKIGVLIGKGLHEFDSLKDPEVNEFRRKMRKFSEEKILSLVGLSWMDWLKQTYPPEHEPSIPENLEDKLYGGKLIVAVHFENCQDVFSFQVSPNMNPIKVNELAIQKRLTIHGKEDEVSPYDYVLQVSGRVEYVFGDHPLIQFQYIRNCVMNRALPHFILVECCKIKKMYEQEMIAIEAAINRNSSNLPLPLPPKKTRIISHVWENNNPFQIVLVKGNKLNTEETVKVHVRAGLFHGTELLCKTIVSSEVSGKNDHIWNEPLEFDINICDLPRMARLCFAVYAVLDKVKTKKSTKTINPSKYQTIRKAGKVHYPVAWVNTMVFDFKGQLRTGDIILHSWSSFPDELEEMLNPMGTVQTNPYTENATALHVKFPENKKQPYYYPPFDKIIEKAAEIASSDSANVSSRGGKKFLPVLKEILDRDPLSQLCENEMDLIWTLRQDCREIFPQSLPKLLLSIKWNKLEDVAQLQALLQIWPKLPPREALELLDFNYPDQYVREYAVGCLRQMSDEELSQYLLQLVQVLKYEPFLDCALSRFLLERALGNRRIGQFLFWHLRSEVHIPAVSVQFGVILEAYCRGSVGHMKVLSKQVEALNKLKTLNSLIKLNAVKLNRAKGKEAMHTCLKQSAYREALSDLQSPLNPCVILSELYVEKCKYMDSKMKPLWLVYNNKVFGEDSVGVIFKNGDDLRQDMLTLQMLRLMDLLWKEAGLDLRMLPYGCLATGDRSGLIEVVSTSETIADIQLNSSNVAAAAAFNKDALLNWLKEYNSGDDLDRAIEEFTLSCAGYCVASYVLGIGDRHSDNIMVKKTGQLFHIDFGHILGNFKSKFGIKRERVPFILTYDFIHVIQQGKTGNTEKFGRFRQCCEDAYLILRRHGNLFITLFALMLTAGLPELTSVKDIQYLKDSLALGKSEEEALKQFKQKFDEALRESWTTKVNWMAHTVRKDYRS
T1 sequence (P27986 whole entry partner): as the sequence (P27986 whole entry partner) above

One may read the IC50 as the concentration needed to halve the response being measured. As to `Cc1nn2ccc(CNC(=N)N)cc2c1-c1nc(Cc2ccc(Cl)cc2)c(-c2nnc[nH]2)s1` [Compound 35, N-({3-[4-(4-chlorobenzyl)-5-(4H-1,2,4-triazol-3-yl)-1,3-thiazol-2-yl]-2-methylpyrazolo[1,5-a]pyridin-5-yl}methyl)guanidine], the IC50 in assay [1] and in assay [2] was 100 to 1000 nM each time.
Broadly, the inhibition is the change of the read-out against control, counted positive when it falls. In the case of `CC(=O)Nc1cc(-c2cc(C(O)(c3ccc(Cl)cc3)C3CCN(C)CC3)c(-c3nnc[nH]3)s2)ccn1` (stereo not shown) [Compound 237, N-(4-{4-[(4-chlorophenyl)(hydroxy)(1-methylpiperidin-4-yl)methyl]-5-(4H-1,2,4-triazol-3-yl)-2-thienyl}pyridin-2-yl)acetamide], the inhibition at 1.1 µM in assay [1] (concentration not given, b1387 states 1.1 μM for PI3K α and β, read-out: p110 beta Percent Inhibition) was 89%; in assay [2] (concentration not given, b1387 states 1.1 μM for PI3K α and β, read-out: p110 alpha Percent Inhibition), 61%.
`CC(=O)Nc1cc(-c2nc(Cc3ccc(C)cc3)c(-c3ncc[nH]3)s2)ccn1` [Compound 24]: the concentration for half-maximal inhibition (IC50) is > 1000 nM in assay [1] and 100 to 1000 nM in assay [2].
The like results for `O[C@@H](c1ccc(Cl)cc1)c1cc(-c2ccnnc2)sc1-c1nnc[nH]1` [Compound 55] were, in that order, > 1000 nM and > 1000 nM.
The like results for `Cc1nn2ccc(CN)cc2c1-c1nc(Cc2ccc(Cl)cc2)c(-c2nnc[nH]2)s1` [Compound 1, 1-{3-[4-(4-chlorobenzyl)-5-(4H-1,2,4-triazol-3-yl)-1,3-thiazol-2-yl]-2-methylpyrazolo[1,5-a]pyridin-5-yl}methanamine] were, in that order, 100 to 1000 nM and 100 to 1000 nM.
The like results for `COc1ccc(C(O)c2cc(-c3ccncc3)sc2-c2nnc[nH]2)cc1` (stereo not shown) [Compound 85, (4-methoxyphenyl)[5-pyridin-4-yl-2-(4H-1,2,4-triazol-3-yl)-3-thienyl]methanol] were, in that order, < 100 nM and > 1000 nM.
Consider `Clc1ccc(Cc2nc(-c3ccncc3)sc2-c2cnc[nH]2)cc1` [Compound 66, 4-(4-chlorobenzyl)-5-(1H-imidazol-5-yl)-2-(pyridin-4-yl)thiazole], for which the IC50 in assay [1] was < 100 nM; in assay [2], > 1000 nM.
`Fc1cc(-c2nc(Cc3ccc(Cl)cc3)c(-c3nnc[nH]3)s2)ccn1` [Compound 37]: the IC50 was 100 to 1000 nM in assay [1] and > 1000 nM in assay [2].
For the compound `CC(=O)Nc1cc(-c2sc(C(=O)O)c(Cc3ccc(Cl)cc3)c2C#N)ccn1` [Compound 74], the IC50 in assay [1] and in assay [2] was 100 to 1000 nM each time.
On to `OC(c1ccc(Cl)cc1)c1cc(-c2ccnc(Cl)c2)sc1-c1nnc[nH]1` (stereo not shown) [Compound 14], for which the half-maximal inhibitory concentration (IC50) in assay [1] is < 100 nM; in assay [2], 100 to 1000 nM.
As for `O=C(O)c1sc(N2CCOCC2)nc1Cc1ccc(Cl)cc1F` [Compound 101], the inhibition at 1.1 µM was 105% in assay [1] (at a 1.1 μM concentration, read-out: PI3β Percent Inhibition) and 30% in assay [2] (at a 1.1 μM concentration, read-out: PI3Kα Percent Inhibition).
`OC(c1ccc(Cl)cc1)c1cc(-c2ccnnc2)sc1-c1nnc[nH]1` (stereo not shown) [Compound 79]: the half-maximal inhibitory concentration (IC50) in assay [1] is 100 to 1000 nM; in assay [2], > 1000 nM.
Regarding `Cc1nn2ccccc2c1-c1nc(Cc2ccc(Cl)cc2)c(-c2nnc[nH]2)s1` [Compound 4, 3-[4-(4-chlorobenzyl)-5-(4H-1,2,4-triazol-3-yl)-1,3-thiazol-2-yl]-2-methylpyrazolo[1,5-a]pyridine], the half-inhibitory concentration (IC50) in assay [1] and in assay [2] was 100 to 1000 nM each time.
As for `OC(c1ccc(Cl)cc1)c1cc(-c2ccnc3[nH]ccc23)sc1-c1nnc[nH]1` (stereo not shown) [Compound 10], the IC50 in assay [1] and in assay [2] was 100 to 1000 nM in each case.
Take `CC(=O)Nc1cc(-c2nc(Cc3ccccc3)c(-c3ncc[nH]3)s2)ccn1` [Compound 2, N-{4-[4-benzyl-5-(1H-imidazol-2-yl)-1,3-thiazol-2-yl]pyridin-2-yl}acetamide]: the IC50 in assay [1] and in assay [2] was > 1000 nM in each case.
For the compound `OCc1cc(-c2cc(C(O)c3ccc(Cl)cc3)c(-c3nnc[nH]3)s2)ccn1` (stereo not shown) [Compound 8], the IC50 is 100 to 1000 nM in assay [1] and > 1000 nM in assay [2].
The like results for `Cc1nn2ccc(CN(CCN)Cc3ccncc3)cc2c1-c1nc(Cc2ccc(Cl)cc2)c(-c2nnc[nH]2)s1` [Compound 31] were, in that order, < 100 nM and 100 to 1000 nM.
The like results for `OCCNc1cc(-c2cc(C(O)c3ccc(Cl)cc3)c(-c3nnc[nH]3)s2)ccn1` (stereo not shown) [Compound 49, 2-({4-[4-[(4-chlorophenyl)(hydroxy)methyl]-5-(4H-1,2,4-triazol-3-yl)-2-thienyl]pyridin-2-yl}amino)ethanol] were, in that order, > 1000 nM and > 1000 nM.
The like results for `Cc1nn2ccc(CNC(=O)c3cnccn3)cc2c1-c1nc(Cc2ccc(Cl)cc2)c(-c2nnc[nH]2)s1` [Compound 50, N-({3-[4-(4-chlorobenzyl)-5-(4H-1,2,4-triazol-3-yl)-1,3-thiazol-2-yl]-2-methylpyrazolo[1,5-a]pyridin-5-yl}methyl)pyrazine-2-carboxamide] were, in that order, < 100 nM and < 100 nM.
Turning to `Clc1ccc(Cc2nc(-c3ccncc3)sc2-c2ccc[nH]2)cc1` [Compound 22, 4-(4-chlorobenzyl)-2-(pyridin-4-yl)-5-(1H-pyrrol-2-yl)thiazole], the 50% inhibitory concentration (IC50) in assay [1] and in assay [2] was > 1000 nM throughout.
Consider `Clc1ccc(C(c2cc(-c3ccncc3)sc2-c2nnc[nH]2)N2CCC2)cc1` (stereo not shown) [Compound 51], for which the half-inhibitory concentration (IC50) in assay [1] was < 100 nM; in assay [2] it was > 1000 nM.
In the case of `Cc1noc(C)c1-c1cc(C(O)c2ccc(Cl)cc2)c(-c2nnc[nH]2)s1` (stereo not shown) [Compound 34], the 50% inhibitory concentration (IC50) is 100 to 1000 nM in assay [1] and > 1000 nM in assay [2].
The like results for `Clc1ccc(Cc2nc(-c3ccncc3)sc2-c2nnc[nH]2)cc1` [Compound 76, 4-(4-chlorobenzyl)-2-(pyridin-4-yl)-5-(4H-1,2,4-triazol-3-yl)thiazole] were, in that order, 100 to 1000 nM and > 1000 nM.
The like results for `N#Cc1c(-c2ccnnc2)sc(-c2nnc[nH]2)c1Cc1ccc2ccccc2c1` [Compound 88, 4-(2-naphthylmethyl)-2-pyridazin-4-yl-5-(4H-1,2,4-triazol-3-yl)thiophene-3-carbonitrile] were, in that order, < 100 nM and > 1000 nM.
The like results for `Cc1cc(-c2cc(C(O)c3ccc(Cl)cc3)c(-c3nnc[nH]3)s2)ccn1` (stereo not shown) [Compound 11] were, in that order, < 100 nM and > 1000 nM.
In the case of `OC(c1ccc(Cl)cc1)c1cc(-c2ccnc(F)c2)sc1-c1nnc[nH]1` (stereo not shown) [Compound 21, (4-chlorophenyl)[5-(2-fluoropyridin-4-yl)-2-(4H-1,2,4-triazol-3-yl)-3-thienyl]methanol], the IC50 in assay [1] was < 100 nM; in assay [2], > 1000 nM.
The like results for `N#Cc1cc(-c2cc([C@@H](O)c3ccc(Cl)cc3)c(-c3nnc[nH]3)s2)ccn1` [Compound 48] were, in that order, 100 to 1000 nM and 100 to 1000 nM.
The like results for `CN1CCc2cc(Cl)ccc2C1c1cc(-c2ccncc2)sc1-c1ccn[nH]1` (stereo not shown) [Compound 58, 6-Chloro-2-methyl-1-[2-(1H-pyrazol-5-yl)-5-pyridin-4-yl-3-thienyl]-1,2,3,4-tetrahydroisoquinoline] were, in that order, 100 to 1000 nM and > 1000 nM.
With `O[C@H](c1ccc(Cl)cc1)c1cc(-c2ccnc(Cl)c2)sc1-c1nnc[nH]1` [Compound 30], the IC50 was < 100 nM in assay [1] and 100 to 1000 nM in assay [2].
